According to BigSolDB 2.1:
Where a SMILES comes first, the peptide text is derived from it.

COC(=O)[C@H](Cc1ccccc1)NC(=O)[C@@H](N)CC(=O)O (H-Asp-Phe-OMe)
solubility (mole fraction)
Settings	in ethanol	in methanol	in water
278.15 K	3.16e-05	0.000532	0.000338
283.15 K	4.53e-05	0.000593	0.000408
288.15 K	6.19e-05	0.000665	0.000483
293.15 K	8.48e-05	0.00074	0.000581
298.15 K	0.000113	0.000832	0.000701
303.15 K	0.000144	0.000939	0.000836
308.15 K	0.000187	0.00107	0.00102
313.15 K	0.000236	0.0012	0.00123
318.15 K	0.000291	0.00136	0.0015
323.15 K	0.000347	0.00155	0.00182
328.15 K	0.000418	0.00175	0.00224
333.15 K	0.000493	0.002	0.00274
